Measured values taken from paper PMC10882719 (Frontiers in Neuroscience, 2024).
Where two headings read alike, the source gives them in different places.

What was measured:
Assay type in all cases: cell-based
168 GPCRs [1] = biological target: T1, 168 GPCRs (Homo sapiens, UniProt P32248)
T1 construct: host or cells: PathHunter cell lines
T1 sequence (P32248 25-378): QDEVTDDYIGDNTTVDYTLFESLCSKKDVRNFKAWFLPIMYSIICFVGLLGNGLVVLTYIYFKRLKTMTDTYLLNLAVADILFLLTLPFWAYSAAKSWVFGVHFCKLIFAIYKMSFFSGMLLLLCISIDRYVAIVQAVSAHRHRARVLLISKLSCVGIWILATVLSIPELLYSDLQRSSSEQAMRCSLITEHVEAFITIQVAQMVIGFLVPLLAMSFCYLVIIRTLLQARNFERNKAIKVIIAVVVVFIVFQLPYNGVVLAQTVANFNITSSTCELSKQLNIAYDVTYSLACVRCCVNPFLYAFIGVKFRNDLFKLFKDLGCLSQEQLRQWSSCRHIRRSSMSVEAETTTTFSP

168 GPCRs [2] = biological target: T2, 168 GPCRs (Homo sapiens, UniProt P30550); conditions: GRPR
T2 construct: host or cells: PathHunter cell lines
T2 sequence (P30550 whole entry): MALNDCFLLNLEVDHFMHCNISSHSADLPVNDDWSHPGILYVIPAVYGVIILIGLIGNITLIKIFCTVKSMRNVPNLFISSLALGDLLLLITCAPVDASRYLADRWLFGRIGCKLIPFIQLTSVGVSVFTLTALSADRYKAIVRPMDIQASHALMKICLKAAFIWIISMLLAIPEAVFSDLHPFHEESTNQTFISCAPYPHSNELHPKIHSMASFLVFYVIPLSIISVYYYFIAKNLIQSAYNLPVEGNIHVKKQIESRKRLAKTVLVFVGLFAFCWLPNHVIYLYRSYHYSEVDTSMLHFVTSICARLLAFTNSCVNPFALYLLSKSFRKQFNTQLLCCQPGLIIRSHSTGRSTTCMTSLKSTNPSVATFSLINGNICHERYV

168 GPCRs [3] = biological target: T3, 168 GPCRs (Homo sapiens, UniProt P30518)
T3 construct: host or cells: PathHunter cell lines
T3 sequence (P30518 whole entry): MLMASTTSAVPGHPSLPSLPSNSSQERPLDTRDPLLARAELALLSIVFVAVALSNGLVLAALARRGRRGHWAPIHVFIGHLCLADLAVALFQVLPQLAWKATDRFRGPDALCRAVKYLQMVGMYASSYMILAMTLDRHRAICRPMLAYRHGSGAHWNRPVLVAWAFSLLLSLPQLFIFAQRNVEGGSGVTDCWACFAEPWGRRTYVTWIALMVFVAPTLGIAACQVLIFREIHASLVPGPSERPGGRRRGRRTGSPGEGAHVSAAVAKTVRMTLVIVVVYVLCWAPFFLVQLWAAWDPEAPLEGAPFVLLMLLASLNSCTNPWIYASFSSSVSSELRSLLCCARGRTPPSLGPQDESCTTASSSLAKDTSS

168 GPCRs [4] = biological target: T4, 168 GPCRs (Homo sapiens, UniProt P25106)
T4 construct: host or cells: PathHunter cell lines
T4 sequence (P25106 whole entry): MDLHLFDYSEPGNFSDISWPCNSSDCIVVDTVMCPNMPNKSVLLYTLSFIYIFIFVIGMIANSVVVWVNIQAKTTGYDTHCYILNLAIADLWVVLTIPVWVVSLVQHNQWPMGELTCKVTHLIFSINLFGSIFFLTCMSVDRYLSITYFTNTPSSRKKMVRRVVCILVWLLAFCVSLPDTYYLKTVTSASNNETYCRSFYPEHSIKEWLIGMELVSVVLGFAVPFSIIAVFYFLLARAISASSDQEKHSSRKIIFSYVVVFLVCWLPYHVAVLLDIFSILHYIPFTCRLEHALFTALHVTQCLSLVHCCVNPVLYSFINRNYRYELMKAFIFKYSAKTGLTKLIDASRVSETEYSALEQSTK

168 GPCRs [5] = biological target: T5, 168 GPCRs (Homo sapiens, UniProt P32241); conditions: VIPR1
T5 construct: host or cells: PathHunter cell lines
T5 sequence (P32241 31-457): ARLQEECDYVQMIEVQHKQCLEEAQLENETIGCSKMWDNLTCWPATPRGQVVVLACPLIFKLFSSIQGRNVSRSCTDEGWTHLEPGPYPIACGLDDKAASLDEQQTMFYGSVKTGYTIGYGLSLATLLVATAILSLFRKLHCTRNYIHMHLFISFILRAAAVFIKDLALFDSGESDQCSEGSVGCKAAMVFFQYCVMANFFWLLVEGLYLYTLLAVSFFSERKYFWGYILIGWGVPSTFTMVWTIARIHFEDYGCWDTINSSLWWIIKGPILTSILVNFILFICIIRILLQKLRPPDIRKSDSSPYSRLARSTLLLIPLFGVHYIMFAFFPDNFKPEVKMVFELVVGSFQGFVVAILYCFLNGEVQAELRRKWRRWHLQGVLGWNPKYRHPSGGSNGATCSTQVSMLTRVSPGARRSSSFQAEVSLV

168 GPCRs [6] = biological target: T6, 168 GPCRs (Homo sapiens, UniProt P30874); conditions: SSTR2
T6 construct: host or cells: PathHunter cell lines
T6 sequence (P30874 whole entry): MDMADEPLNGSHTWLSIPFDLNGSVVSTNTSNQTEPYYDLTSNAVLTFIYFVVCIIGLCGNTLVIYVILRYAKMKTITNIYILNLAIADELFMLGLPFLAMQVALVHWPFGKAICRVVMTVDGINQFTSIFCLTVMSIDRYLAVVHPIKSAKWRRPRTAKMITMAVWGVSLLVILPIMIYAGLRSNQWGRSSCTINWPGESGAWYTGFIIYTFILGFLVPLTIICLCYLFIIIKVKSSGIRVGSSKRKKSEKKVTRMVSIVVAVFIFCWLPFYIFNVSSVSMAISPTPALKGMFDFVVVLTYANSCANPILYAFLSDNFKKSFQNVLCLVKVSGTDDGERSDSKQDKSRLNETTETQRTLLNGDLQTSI

168 GPCRs [7] = biological target: T7, 168 GPCRs (Homo sapiens, UniProt P48145)
T7 construct: host or cells: PathHunter cell lines
T7 sequence (P48145 1-328): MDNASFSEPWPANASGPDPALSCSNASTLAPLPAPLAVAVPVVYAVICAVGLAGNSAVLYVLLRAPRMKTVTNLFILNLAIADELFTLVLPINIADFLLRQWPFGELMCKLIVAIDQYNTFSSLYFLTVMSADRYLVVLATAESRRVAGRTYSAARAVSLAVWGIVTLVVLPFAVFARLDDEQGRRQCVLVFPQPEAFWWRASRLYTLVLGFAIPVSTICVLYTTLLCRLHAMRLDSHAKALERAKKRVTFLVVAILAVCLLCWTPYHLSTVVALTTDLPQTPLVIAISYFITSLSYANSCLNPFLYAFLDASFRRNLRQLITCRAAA

168 GPCRs [8] = biological target: T8, 168 GPCRs (Homo sapiens, UniProt P08908); conditions: HTR1A
T8 construct: host or cells: PathHunter cell lines
T8 sequence (P08908 1-422): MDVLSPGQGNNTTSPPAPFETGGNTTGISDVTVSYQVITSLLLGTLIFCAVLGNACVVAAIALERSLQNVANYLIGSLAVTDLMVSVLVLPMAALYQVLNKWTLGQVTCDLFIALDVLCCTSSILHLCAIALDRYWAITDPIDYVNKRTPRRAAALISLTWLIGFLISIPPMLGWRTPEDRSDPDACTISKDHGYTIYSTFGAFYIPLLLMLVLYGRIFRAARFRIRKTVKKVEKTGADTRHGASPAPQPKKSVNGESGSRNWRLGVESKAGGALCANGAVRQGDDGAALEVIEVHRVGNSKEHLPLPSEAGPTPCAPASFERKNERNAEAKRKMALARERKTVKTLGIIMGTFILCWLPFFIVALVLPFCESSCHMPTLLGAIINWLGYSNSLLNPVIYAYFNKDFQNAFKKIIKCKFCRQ

| Structure (SMILES) | % Agonist Activity (168 GPCRs [1]; CCR7, 1 uM) [%] | % Antagonist Activity (168 GPCRs [1]; CCR7, 1 uM) [%] | % Agonist Activity (168 GPCRs [1]; CCR7, 10 uM) [%] | % Antagonist Activity (168 GPCRs [1]; CCR7, 10 uM) [%] | % Agonist Activity (168 GPCRs [2]; 1 uM) [%] | % Antagonist Activity (168 GPCRs [2]; 1 uM) [%] | % Agonist Activity (168 GPCRs [2]; 10 uM) [%] | % Antagonist Activity (168 GPCRs [2]; 10 uM) [%] | % Agonist Activity (168 GPCRs [3]; AVPR2, 1 uM) [%] | % Antagonist Activity (168 GPCRs [3]; AVPR2, 1 uM) [%] | % Agonist Activity (168 GPCRs [3]; AVPR2, 10 uM) [%] | % Antagonist Activity (168 GPCRs [3]; AVPR2, 10 uM) [%] | % Agonist Activity (168 GPCRs [4]; CXCR7, 1 uM) [%] | % Antagonist Activity (168 GPCRs [4]; CXCR7, 1 uM) [%] | % Agonist Activity (168 GPCRs [4]; CXCR7, 10 uM) [%] | % Antagonist Activity (168 GPCRs [4]; CXCR7, 10 uM) [%] | % Agonist Activity (168 GPCRs [5]; Conc 1 uM) [%] | % Antagonist Activity (168 GPCRs [5]; Conc 1 uM) [%] | % Agonist Activity (168 GPCRs [5]; Conc 10 uM) [%] | % Antagonist Activity (168 GPCRs [5]; Conc 10 uM) [%] | also measured |
| --- | --- | --- | --- | --- | --- | --- | --- | --- | --- | --- | --- | --- | --- | --- | --- | --- | --- | --- | --- | --- | --- |
| CNC(C)C(=O)c1ccc2c(c1)OCO2 (stereo not shown) [methylone] | -3.4 | -8.3 | -3.7 | -3.4 | 0 | 0.7 | -0.1 | -1.4 | -0.9 | -2.7 | 1 | -14.8 | -1.3 | 14.1 | -0.8 | 7.3 | 0.3 | -0.7 | 0.6 | 5.3 | % Agonist Activity (168 GPCRs [6]; Conc 1 uM): 0%; % Antagonist Activity (168 GPCRs [6]; Conc 1 uM): -0.4%; % Agonist Activity (168 GPCRs [6]; Conc 10 uM): 0.7%; % Antagonist Activity (168 GPCRs [6]; Conc 10 uM): -4.2%; % Agonist Activity (168 GPCRs [7]; NPBWR1, 1 uM): 1.6%; % Antagonist Activity (168 GPCRs [7]; NPBWR1, 1 uM): 17.1%; % Agonist Activity (168 GPCRs [7]; NPBWR1, 10 uM): -1.9%; % Antagonist Activity (168 GPCRs [7]; NPBWR1, 10 uM): 25.1%; % Agonist Activity (168 GPCRs [8]; 1 uM): 0.8%; % Antagonist Activity (168 GPCRs [8]; 1 uM): -5.2%; % Agonist Activity (168 GPCRs [8]; 10 uM): -0.1%; % Antagonist Activity (168 GPCRs [8]; 10 uM): -6.4% |
| CNC(C)Cc1ccc2c(c1)OCO2 (stereo not shown) [MDMA, 3,4-Methylenedioxy methamphetamine, reference compound] | 1.9 | 1.5 | 2.6 | 6.8 | -0.3 | 1.9 | -0.6 | 1.8 | -2.9 | -7.8 | -2.2 | -0.4 | -1.3 | 5.3 | 0.5 | 8 | -0.8 | 5.7 | -0.6 | 5.1 | % Agonist Activity (168 GPCRs [6]; Conc 1 uM): 0%; % Antagonist Activity (168 GPCRs [6]; Conc 1 uM): 2.7%; % Agonist Activity (168 GPCRs [6]; Conc 10 uM): 0.2%; % Antagonist Activity (168 GPCRs [6]; Conc 10 uM): 9.1%; % Agonist Activity (168 GPCRs [7]; NPBWR1, 1 uM): -10.2%; % Antagonist Activity (168 GPCRs [7]; NPBWR1, 1 uM): -7.5%; % Agonist Activity (168 GPCRs [7]; NPBWR1, 10 uM): -13.4%; % Antagonist Activity (168 GPCRs [7]; NPBWR1, 10 uM): -8.5%; % Agonist Activity (168 GPCRs [8]; 1 uM): 1.1%; % Antagonist Activity (168 GPCRs [8]; 1 uM): -5.1%; % Agonist Activity (168 GPCRs [8]; 10 uM): 2.4%; % Antagonist Activity (168 GPCRs [8]; 10 uM): -0.9% |
